Assay [1] has as its target T1, 17β-HSD3 (Homo sapiens, UniProt P37058).
T1 construct: expressed in transfected cells; host or cells: HEK-293 (homogenate)
T1 sequence (P37058 1-310): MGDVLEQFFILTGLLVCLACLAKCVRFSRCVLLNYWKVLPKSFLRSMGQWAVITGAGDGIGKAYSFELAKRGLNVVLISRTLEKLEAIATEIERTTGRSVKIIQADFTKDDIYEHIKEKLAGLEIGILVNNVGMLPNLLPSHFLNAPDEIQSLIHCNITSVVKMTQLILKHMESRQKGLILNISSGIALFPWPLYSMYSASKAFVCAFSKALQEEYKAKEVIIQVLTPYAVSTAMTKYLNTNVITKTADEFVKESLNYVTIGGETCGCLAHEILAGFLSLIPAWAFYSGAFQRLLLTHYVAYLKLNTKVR
Put plainly: Inhibition of 17β-HSD3 in intact HEK-293 cells. Type of assay: cell-based. The conditions noted are these: for Intact cells (%), tested at 1 μM: Table 3, footnote b; for inhibition at 0.1 µM: HEK293, 1 h.

The target in assay [2] is T1, 17β-HSD3. Put plainly: Inhibition of 17β-HSD3 in homogenated HEK-293 cells. Type of assay: biochemical.
The target in another assay is T2, 17β-HSD10 (Homo sapiens, UniProt Q99714).
T2 construct: expressed in transfected cells
T2 sequence (Q99714 1-261): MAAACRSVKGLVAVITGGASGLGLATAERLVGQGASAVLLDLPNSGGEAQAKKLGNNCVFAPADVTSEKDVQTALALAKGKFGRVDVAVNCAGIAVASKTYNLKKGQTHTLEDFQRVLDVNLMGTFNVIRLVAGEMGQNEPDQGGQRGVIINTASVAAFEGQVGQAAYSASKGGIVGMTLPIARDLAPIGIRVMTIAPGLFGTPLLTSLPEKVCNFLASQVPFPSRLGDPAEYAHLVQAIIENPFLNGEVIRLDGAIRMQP
The assay is described as follows: Inhibition of 17β-HSD10 in stably transfected HEK-293 whole cells (E2 into E1). In kind it is cell-based.

Where [3] appears, read: [14C]-E2 (1 μM) into [14C]-E1, intact HEK-293 cells, 1 μM.
Where [4] appears, read: Table 3, 0.1 μM, read-out: Intact cells (%) (0.1 μM).
Where [5] appears, read: Table 3, read-out: Homo (%) (0.01 μM).
The mark [6] stands for this setting: Table 3, read-out: Homo (%) (0.1 μM).
[7] abbreviates: HEK293, [14C]-E2 (1 μM) into [14C]-E1, intact HEK-293 cells, 1 μM, read-out: Inhibition (%) at 1 μM.

Where two headings read alike, the source gives them in different places.

In the case of `CC1CN(C[C@@]2(O)CC[C@@]3(C)[C@@H](CC[C@@H]4[C@@H]3CC[C@]3(C)C(=O)CC[C@@H]43)C2)C(C)CN1Cc1cccc(SC(F)(F)F)c1` (stereo partly drawn) [Compound 11d, (3α,5α)-3-{[(2ξ,5ξ)-2,5-dimethyl-4-{3-[(trifluoromethyl)sulfanyl]benzyl}piperazin-1-yl]methyl}-3-hydroxyandrostan-17-one], the “Intact cells (%), tested at 1 μM” value at 17β-HSD3 [1] is “N/A (58)^b %”. On 17β-HSD3 [2] (Table 3), the “Homo (%) (0.01 μM)” value was 18% and the “Homo (%) (0.1 μM)” value turned out to be 88%. Besides, the “Inhibition (%) at 1 μM” value at 17β-HSD10 (setting [3]) amounted to 27%.

As for `CC1CN(C[C@@]2(O)CC[C@@]3(C)[C@@H](CC[C@@H]4[C@@H]3CC[C@]3(C)C(=O)CC[C@@H]43)C2)C(C)CN1Cc1cccc(Cl)c1` (stereo partly drawn) [Compound 11e, (3α,5α)-3-{[(2ξ,5ξ)-4-(3-chlorobenzyl)-2,5-dimethylpiperazin-1-yl]methyl}-3-hydroxyandrostan-17-one], the “Intact cells (%), tested at 1 μM” value at 17β-HSD3 [1] is reported as “N/A (55)^b %”. For the same molecule, on 17β-HSD3 [2] (Table 3), the “Homo (%) (0.01 μM)” value was found to be 26% and the “Homo (%) (0.1 μM)” value was 84%. The “Inhibition (%) at 1 μM” value on 17β-HSD10 (setting [3]) was 25%.

In the case of `COc1cccc(CN2CC(C)N(C[C@@]3(O)CC[C@@]4(C)[C@@H](CC[C@@H]5[C@@H]4CC[C@]4(C)C(=O)CC[C@@H]54)C3)CC2C)c1` (stereo partly drawn) [Compound 11f, (3α,5α)-3-hydroxy-3-{[(2ξ,5ξ)-4-(3-methoxybenzyl)-2,5-dimethylpiperazin-1-yl]methyl}androstan-17-one], the inhibition at 0.1 µM on 17β-HSD3 [1] (setting [4]) came out at 50%; at 17β-HSD3 [2] (setting [6]), 87%. Moreover, the inhibition at 0.01 µM on 17β-HSD3 [2] (setting [5]) stood at 19%. Further, on 17β-HSD10 (setting [7]), the inhibition at 1 µM came to 21%.

As for `CC1CN(CC2(O)CCC3(C)C(CCC4C5CCC(=O)C5(C)CCC43)C2)C(C)CN1Cc1cccnc1` (stereo not drawn) [Compound 11g, (3α,5α)-3-{[(2ξ,5ξ)-2,5-dimethyl-4-(pyridin-3-ylmethyl)piperazin-1-yl]methyl}-3-hydroxyandrostan-17-one], the “Intact cells (%), tested at 1 μM” value at 17β-HSD3 [1] was “N/A (58)^b %”. Further, on 17β-HSD3 [2] (Table 3), the “Homo (%) (0.01 μM)” value was 17% and the “Homo (%) (0.1 μM)” value is on record as 47%. Moreover, on 17β-HSD10 (setting [3]), the “Inhibition (%) at 1 μM” value came to 21%.

As to `C[C@]12CC[C@](O)(CN3CCN(C(=O)c4ccccc4C(F)(F)F)CC3)C[C@@H]1CC[C@@H]1[C@@H]2CC[C@]2(C)C(=O)CC[C@@H]12` [Compound 12c, (3α,5α)-3-hydroxy-3-[(4-{[2-(trifluoromethyl)phenyl]carbonyl}-piperazin-1-yl)methyl]androstan-17-one], the results for the inhibition at 0.1 µM on 17β-HSD3 [1] (setting [4]) and at 17β-HSD3 [2] (setting [6]) were 62% and 86%, respectively. Moreover, the inhibition at 0.01 µM on 17β-HSD3 [2] (setting [5]) was found to be 31%. Moreover, the inhibition at 1 µM at 17β-HSD10 (setting [7]) is 47%.

As for `CC1CN(C(=O)c2ccc(C(F)(F)F)cc2)C(C)CN1C[C@@]1(O)CC[C@@]2(C)[C@@H](CC[C@@H]3[C@@H]2CC[C@]2(C)C(=O)CC[C@@H]32)C1` (stereo partly drawn) [Compound 13d, (3α,5α)-3-{[(2,5)-2,5-dimethyl-4-{[4-(trifluoromethyl)phenyl]carbonyl}piperazin-1-yl]methyl}-3-hydroxyandrostan-17-one], the “Intact cells (%) (0.1 μM)” value on 17β-HSD3 [1] (Table 3, 0.1 μM) is on record as 61%. Besides, on 17β-HSD3 [2] (Table 3), the “Homo (%) (0.01 μM)” value was 17% and the “Homo (%) (0.1 μM)” value amounted to 91%. Moreover, on 17β-HSD10 (setting [3]), the “Inhibition (%) at 1 μM” value came out at 22%.

For `C[C@]12CC[C@](O)(CN3CCN(S(=O)(=O)c4cccc(C(F)(F)F)c4)CC3)C[C@@H]1CC[C@@H]1[C@@H]2CC[C@]2(C)C(=O)CC[C@@H]12` [Compound 14a, (3α,5α)-3-hydroxy-3-[(4-{[3-(trifluoromethyl)phenyl]sulfonyl}piperazin-1-yl)methyl]androstan-17-one], the “Intact cells (%), tested at 1 μM” value on 17β-HSD3 [1] is on record as “N/A (71)^b %”. Also, at 17β-HSD3 [2] (setting [5]), the inhibition at 0.01 µM stood at 21%. In addition, the inhibition at 0.1 µM at 17β-HSD3 [2] (setting [6]) came out at 82%. The inhibition at 1 µM at 17β-HSD10 (setting [7]) turned out to be 3%.

With `C[C@]12CC[C@](O)(CN3CCN(S(=O)(=O)c4ccccc4C(F)(F)F)CC3)C[C@@H]1CC[C@@H]1[C@@H]2CC[C@]2(C)C(=O)CC[C@@H]12` [Compound 14b, (3α,5α)-3-hydroxy-3-[(4-{[2-(trifluoromethyl)phenyl]sulfonyl}piperazin-1-yl)methyl]androstan-17-one], the inhibition at 0.1 µM at 17β-HSD3 [1] (setting [4]) amounted to 45%; at 17β-HSD3 [2] (setting [6]), 92%. Also, the inhibition at 0.01 µM on 17β-HSD3 [2] (setting [5]) worked out at 45%. For the same molecule, the inhibition at 1 µM at 17β-HSD10 (setting [7]) was 32%.

`C[C@]12CC[C@](O)(CN3CCN(S(=O)(=O)c4ccc(C(F)(F)F)cc4)CC3)C[C@@H]1CC[C@@H]1[C@@H]2CC[C@]2(C)C(=O)CC[C@@H]12` [Compound 14c, (3α,5α)-3-hydroxy-3-[(4-{[4-(trifluoromethyl)phenyl]sulfonyl}-piperazin-1-yl)methyl]androstan-17-one]: the inhibition at 0.1 µM at 17β-HSD3 [1] (read-out: Intact cells (%) (0.1 μM), Table 3, 0.1 μM) was found to be 34%; at 17β-HSD3 [2] (read-out: Homo (%) (0.1 μM), Table 3) it was 78%. At 17β-HSD3 [2] (read-out: Homo (%) (0.01 μM), Table 3), the inhibition at 0.01 µM came to 21%. In addition, on 17β-HSD10 (HEK293, read-out: Inhibition (%) at 1 μM), the inhibition at 1 µM stood at 14%.

As for `CC1CN(S(=O)(=O)c2cccc(C(F)(F)F)c2)C(C)CN1C[C@@]1(O)CC[C@@]2(C)[C@@H](CC[C@@H]3[C@@H]2CC[C@]2(C)C(=O)CC[C@@H]32)C1` (stereo partly drawn) [Compound 15a, (3α,5α)-3-{[(2ξ,5ξ)-2,5-dimethyl-4-{[3-(trifluoromethyl)phenyl]sulfonyl}piperazin-1-yl]methyl}-3-hydroxyandrostan-17-one], the “Intact cells (%) (0.1 μM)” value at 17β-HSD3 [1] (Table 3, 0.1 μM) is on record as 77%. Moreover, at 17β-HSD3 [2] (Table 3), the “Homo (%) (0.01 μM)” value was 32% and the “Homo (%) (0.1 μM)” value came out at 91%. For the same molecule, the “Inhibition (%) at 1 μM” value at 17β-HSD10 (setting [3]) is 42%.

On to `CC1CN(S(=O)(=O)c2ccccc2C(F)(F)F)C(C)CN1CC1(O)CCC2(C)C(CCC3C4CCC(=O)C4(C)CCC32)C1` (stereo not shown) [Compound 15c], for which the “Intact cells (%) (0.1 μM)” value at 17β-HSD3 [1] (Table 3, 0.1 μM) was 47%. Further, on 17β-HSD3 [2] (Table 3), the “Homo (%) (0.01 μM)” value is reported as 79% and the “Homo (%) (0.1 μM)” value is on record as 92%. Moreover, the “Inhibition (%) at 1 μM” value on 17β-HSD10 (setting [3]) is 18%.

As a reminder, the IC50 is the midpoint of a concentration-inhibition curve. `C[C@]12CC[C@@]3(C[C@@H]1CC[C@@H]1[C@@H]2CC[C@]2(C)C(=O)CC[C@@H]12)CN(CCO)C(=O)O3` [Compound 21, (3R,5S,8R,9S,10S,13S,14S)-3′-(2-hydroxyethyl)-10,13-dimethyltetrahydrodecahydro-2′H-spiro[cyclopenta[α]phenanthrene-3,5′-[1,3]oxazolidine]-2′,17(2H)-dione]: the “Intact cells (%) (0.1 μM), tested in another experiment” value at 17β-HSD3 [1] (Table 4, footnote b, 0.1 μM) is recorded as 16^b %. Further, on 17β-HSD3 [2] (read-out: Homo (%) (0.01 μM), Table 4), the inhibition at 0.01 µM came to 0%. In addition, the inhibition at 0.1 µM at 17β-HSD3 [2] (read-out: Homo (%) (0.1 μM), Table 4) came out at 9%. In addition, the inhibition at 1 µM at 17β-HSD3 [2] (read-out: Homo (%) (1.0 μM), Table 4, 1.0 μM) stood at 38%. For the same molecule, at 17β-HSD10 (intact transfected HEK-293 cells, E2 1 μM, read-out: IC50), the IC50 was 550 nM.

Values taken from patent US11072632B2, “Inhibitors of 17β-HSD1, 17β-HSD3 and 17β-HSD10” (UNIVERSITÉ LAVAL, priority 2011, dated 2021).
